Data: patent US6593480B2 (Abbott Laboratories, priority 1999, dated 2003)

Columns and labels:
[1] = target: T1, Human glucocorticoid receptors (Homo sapiens, UniProt P04150); test: Radioligand filter binding assay, displacement of 3(H)-dexamethasone from human glucocorticoid receptor cytosol; conditions: 1.7 μM test compound, inhibition of 3(H)-dex binding to hGR; for inhibition at 1.7 µM: read-out: GR BINDING (% Inhibition @ 1.7 μM)
T1 construct: made in house; host or cells: Sf9 insect cells, recombinant baculovirus (BAC-TO-BAC)
T1 sequence (P04150 1-777): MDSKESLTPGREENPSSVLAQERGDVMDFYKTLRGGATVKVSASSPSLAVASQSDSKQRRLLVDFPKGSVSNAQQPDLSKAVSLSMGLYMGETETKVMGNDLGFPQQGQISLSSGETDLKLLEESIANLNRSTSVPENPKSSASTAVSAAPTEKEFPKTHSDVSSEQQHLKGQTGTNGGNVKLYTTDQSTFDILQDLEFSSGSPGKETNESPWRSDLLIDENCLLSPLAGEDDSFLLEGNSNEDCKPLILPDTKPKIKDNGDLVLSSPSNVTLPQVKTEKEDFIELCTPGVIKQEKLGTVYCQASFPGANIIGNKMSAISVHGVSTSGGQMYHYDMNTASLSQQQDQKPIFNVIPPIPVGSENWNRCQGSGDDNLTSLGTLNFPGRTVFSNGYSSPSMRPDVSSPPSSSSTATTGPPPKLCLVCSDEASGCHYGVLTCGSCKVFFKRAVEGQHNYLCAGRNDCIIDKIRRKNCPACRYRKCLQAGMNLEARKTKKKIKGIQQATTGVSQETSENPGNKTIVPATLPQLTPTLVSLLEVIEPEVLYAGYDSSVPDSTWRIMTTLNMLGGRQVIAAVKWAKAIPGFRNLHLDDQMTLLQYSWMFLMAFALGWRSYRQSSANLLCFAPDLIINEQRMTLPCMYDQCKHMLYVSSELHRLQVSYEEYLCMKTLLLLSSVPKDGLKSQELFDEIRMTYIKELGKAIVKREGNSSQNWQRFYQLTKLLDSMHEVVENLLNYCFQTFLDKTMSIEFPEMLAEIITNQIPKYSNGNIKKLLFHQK

[2] = target: T2, progesterone receptor (PR) (Homo sapiens, UniProt P06401); test: Radioligand binding assay with progesterone receptor cytosol (similar protocol)
T2 sequence (P06401 1-933): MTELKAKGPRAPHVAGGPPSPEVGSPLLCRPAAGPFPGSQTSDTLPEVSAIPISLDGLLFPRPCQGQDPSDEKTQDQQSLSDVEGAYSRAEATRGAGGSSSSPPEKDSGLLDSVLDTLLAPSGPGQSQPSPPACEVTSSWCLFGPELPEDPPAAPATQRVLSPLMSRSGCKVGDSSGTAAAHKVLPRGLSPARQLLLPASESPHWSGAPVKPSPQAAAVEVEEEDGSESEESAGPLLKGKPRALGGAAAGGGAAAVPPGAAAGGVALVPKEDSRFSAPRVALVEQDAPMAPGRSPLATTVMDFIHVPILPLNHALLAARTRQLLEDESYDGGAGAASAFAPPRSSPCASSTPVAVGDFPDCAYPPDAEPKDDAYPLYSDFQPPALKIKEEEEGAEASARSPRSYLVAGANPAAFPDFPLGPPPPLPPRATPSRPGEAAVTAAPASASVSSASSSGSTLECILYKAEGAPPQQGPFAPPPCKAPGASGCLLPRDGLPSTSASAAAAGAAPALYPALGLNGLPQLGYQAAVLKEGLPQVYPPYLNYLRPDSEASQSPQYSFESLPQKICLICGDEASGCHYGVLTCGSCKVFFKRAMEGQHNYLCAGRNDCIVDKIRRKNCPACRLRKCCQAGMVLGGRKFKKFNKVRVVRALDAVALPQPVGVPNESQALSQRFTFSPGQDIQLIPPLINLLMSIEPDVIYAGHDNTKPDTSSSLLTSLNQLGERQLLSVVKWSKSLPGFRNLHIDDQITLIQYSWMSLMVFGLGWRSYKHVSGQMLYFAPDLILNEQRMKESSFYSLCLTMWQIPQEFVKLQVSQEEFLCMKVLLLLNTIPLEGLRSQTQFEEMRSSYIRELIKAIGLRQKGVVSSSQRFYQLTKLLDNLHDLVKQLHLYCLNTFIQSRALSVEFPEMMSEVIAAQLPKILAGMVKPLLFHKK
Excerpt: Methods for Radioligand Binding Studies with Human Glucocorticoid and Progesterone Receptor Cytosol
A similar protocol was employed to measure affinity of the compounds of the present invention for progesterone receptor (PR).

Row | IC50 [2] | Compound | further results
1 | – | CC#Cc1cccc2c1-c1ccc(NS(C)(=O)=O)cc1C(c1ccccc1)O2 (racemic) [Example 39] | inhibition at 1.7 µM [1]: 90.6%
2 | – | CCOC(=O)CCC1Oc2cccc(OC)c2-c2ccc(NS(C)(=O)=O)cc21 (stereo not shown) [Example 46] | inhibition at 1.7 µM [1]: 84.6%
3 | – | COc1cccc2c1-c1ccc(NS(C)(=O)=O)cc1C(c1cccc(N(C)S(=O)(=O)c3ccc(-c4ccon4)s3)c1)O2 (stereo not shown) [Example 149, 5-(3-isoxazolyl)-N-(3-{1-methoxy-8-[(methylsulfonyl)amino]-6H-benzo[c]chromen-6-yl}phenyl)-N-methyl-2-thiophenesulfonamide] | inhibition at 1.7 µM [1]: 69%
4 | – | COc1ccc(S(=O)(=O)N(C)c2cccc(C3Oc4cccc(OC)c4-c4ccc(NS(C)(=O)=O)cc43)c2)cc1 (stereo not shown) [Example 148, 4-methoxy-N-(3-{1-methoxy-8-[(methylsulfonyl)amino]-6H-benzo[c]chromen-6-yl}phenyl)-N-methylbenzenesulfonamide] | inhibition at 1.7 µM [1]: 82.7%
5 | – | CCS(=O)(=O)Nc1ccc2c(c1)C(c1ccccc1)Oc1cccc(OC)c1-2 (stereo not shown) [Example 7, (1-methoxy-6-phenyl-6H-dibenzo(b,d)pyran-8-yl)ethanesulfonamide] | GR BINDING (% Inhibition @ 1.7 μM) [1]: 90.6%
6 | – | COc1cccc2c1-c1ccc(NC(=O)C3CC3)cc1C(c1ccccc1)O2 (stereo not shown) [Example 16, (1-methoxy-6-phenyl-6H-dibenzo(b,d)pyran-8-yl)cyclopropanecarboxamide] | GR BINDING (% Inhibition @ 1.7 μM) [1]: 74.3%
7 | – | CCOC(=O)/C=C/COc1cccc(C2Oc3cccc(OC)c3-c3ccc(NS(C)(=O)=O)cc32)c1 (stereo not shown) [Example 94, ethyl (2E)-4-(3-{1-methoxy-8-[(methylsulfonyl)amino]-6H-benzo[c]chromen-6-yl}phenoxy)-2-butenoate] | inhibition at 1.7 µM [1]: 79.6%
8 | – | COc1cccc2c1-c1ccc(NC(=O)C(F)(F)F)cc1C(c1ccccc1)O2 (stereo not shown) [Example 22, (1-methoxy-6-phenyl-6H-dibenzo(b,d)pyran-8-yl)trifluoroacetamide] | inhibition at 1.7 µM [1]: 87.9%
9 | – | COc1cccc2c1-c1ccc(NS(C)(=O)=O)cc1C(/C=C/c1ccccc1)O2 (stereo not shown) [Example 89, N-{1-methoxy-6-[(E)-2-phenylethenyl]-6H-benzo[c]chromen-8-yl}methanesulfonamide] | inhibition at 1.7 µM [1]: 86.1%
10 | > 10000 nM | COc1cccc2c1-c1ccc(NS(C)(=O)=O)cc1C(c1cccc(N(C)S(=O)(=O)c3ccccc3)c1)O2 (stereo not shown) [Example 129, N(3-{1-methoxy-8-[(methylsulfonyl)amino]-6H-benzo[c]chromen-6-yl}phenyl)-N-methylbenzenesulfonamide] | –
11 | > 10000 nM | COc1cccc2c1-c1ccc(NS(C)(=O)=O)cc1C(c1cccc(-c3ccc(Cl)cc3)c1)O2 (stereo not shown) [Example 126, N-[6-(4′-chloro[1,1′-biphenyl]-3-yl)-1-methoxy-6H-benzo[c]chromen-8-yl]methanesulfonamide] | –
12 | > 10000 nM | CCS(=O)(=O)N(C)c1cccc(C2Oc3cccc(OC)c3-c3ccc(NS(C)(=O)=O)cc32)c1 (stereo not shown) [Example 131, N-(3-{1-methoxy-8-[(methylsulfonyl)amino]-6H-benzo[c]chromen-6-yl}phenyl)-N-methylethanesulfonamide] | –
13 | 1960 nM | CCOC(=O)CCCCCc1cccc(C2Oc3cccc(OC(F)F)c3-c3ccc(NS(C)(=O)=O)cc32)c1 (stereo not shown) [Example 119, ethel 6-(3-{1-(difluoromethoxy)-8-[(methylsulfonyl)amino]-6H-benzo[c]chromen-6-yl}phenyl)hexanoate] | –
14 | 29 nM | O=S(=O)(Nc1ccc2c(c1)C(c1ccccc1)Oc1cccc(OC(F)F)c1-2)c1cccs1 (stereo not shown) [Example 26, N-(1-difluoromethoxy-6-phenyl-6H-dibenzo[b,d]pyran-8-yl)-thiophene-2-sulfonamide] | –
15 | 260 nM | CS(=O)(=O)Nc1ccc2c(c1)C(c1cccc(-c3ccccc3Cl)c1)Oc1cccc(OC(F)F)c1-2 (stereo not shown) [Example 146, N-[6-(2′-chloro[1,1′-biphenyl]-3-yl)-1-(difluoromethoxy)-6H-benzo[c]chromen-8-yl]methanesulfonamide] | –
16 | > 10000 nM | C=CCOc1ccc(C2Oc3cccc(OC)c3-c3ccc(NS(C)(=O)=O)cc32)cc1 (stereo not shown) [Example 32, (1methoxy-6-(4-allyloxy)phenyl-6H-dibenzo(b,d)pyran-8-yl)-methanesulfonamide] | –
17 | 500 nM | COc1cccc2c1-c1ccc(CS(N)(=O)=O)cc1C(c1cccc(Cl)c1)O2 (stereo not shown) [Example 60, (1-methoxy-6-(3-chlorophenyl)-6H-dibenzo(b,d)pyran-8-yl)methanesulfonamide] | –
18 | 3350 nM | COc1cccc2c1-c1ccc(NS(C)(=O)=O)cc1C(c1ccccc1)O2 (stereo not shown) [Example 5, N-(1-methoxy-6-phenyl-6H-dibenzo[b,d]pyran-8-yl)methanesulfonamide] | –
19 | 140 nM | CS(=O)(=O)Nc1ccc2c(c1)C(c1cccc(-c3ccc(F)cc3)c1)Oc1cccc(OC(F)F)c1-2 (stereo not shown) [Example 144, N-[1-(difluoromethoxy)-6-(4′-fluoro[1,1′-biphenyl]-3-yl)-6H-benzo[c]chromen-8-yl]methanesulfonamide] | –
20 | 6900 nM | (1-ethoxy-6-phenyl-6H-dibenzo(b,d)pyran-8-yl)methanesulfonamide [Example 44] | –
21 | > 10000 nM | CS(=O)(=O)Nc1ccc2c(c1)C(c1cccc(CCCCCCC#N)c1)Oc1cccc(OC(F)F)c1-2 (stereo not shown) [Example 137, N-[6-[3-(6-cyanohexyl)phenyl]-1-(difluoromethoxy)-6H-benzo[c]chromen-8-yl]methanesulfonamide] | –
22 | > 10000 nM | C=Cc1c(NS(C)(=O)=O)ccc2c1C(c1cccc(C(F)(F)F)c1)Oc1cccc(OC)c1-2 (stereo not shown) [Example 3, (1-methoxy-6-(3-trifluoromethyl)phenyl-7-vinyl-6H-dibenzo(b,d)pyran-8-yl)methanesulfonamide] | –
23 | > 1000 nM | COc1cccc2c1-c1ccc(NS(C)(=O)=O)cc1C(c1cccc(/C=C/c3ccccc3)c1)O2 (stereo not shown) [Example 99, N-(1-methoxy-6-{3-[(E)-2-phenylethenyl]phenyl}-6H-benzo[c]chromen-8-yl)methanesulfonamide] | –
24 | 460 nM | Nc1ccc2c(c1Br)C(c1ccccc1)Oc1cccc(OC(F)F)c1-2 (stereo not shown) [Example 4, 8-Amino-7-bromo-1-difluoromethoxy-6-phenyl-6H-dibenzo[b,d]pyran] | –
25 | 610 nM | CCOC(=O)CCc1cccc(C2Oc3cccc(OC(F)F)c3-c3ccc(NS(C)(=O)=O)cc32)c1 (stereo not shown) [Example 118, ethyl 3-(3-{1-(difluoromethoxy)-8-[(methylsulfonyl)amino]-6H-benzo[c]chromen-6-yl}phenyl)propanoate] | –
26 | > 1000 nM | COc1cccc2c1-c1ccc(NS(C)(=O)=O)cc1C(c1ccc(C#CCCCO)s1)O2 (stereo not shown) [Example 102, N-{6-[5-(5-hydroxy-1-pentynyl)-2-thienyl]-1-methoxy-6H-benzo[c]chromen-8-yl}methanesulfonamide] | –
27 | 60 nM | CS(=O)(=O)Nc1ccc2c(c1)C(c1cccc(F)c1)Oc1cccc(OC(F)F)c1-2 (stereo not shown) [Example 107, N-[1-(difluoromethoxy)-6-(3-fluorophenyl)-6H-benzo[c]chromen-8-yl]methanesulfonamide] | –
28 | 120 nM | CS(=O)(=O)Nc1ccc2c(c1)C(c1ccc(Br)s1)Oc1cccc(OC(F)F)c1-2 (stereo not shown) [Example 96, N-{6-(5-bromo-2-thienyl)-1-(difluoromethoxy)-6H-benzo[c]chromen-8-yl}methanesulfonamide] | –
